Measured values from patent US6017911A, “Pyridonecarboxylic acid derivatives and intermediates for the synthesis thereof” (Dainippon Pharmaceutical Co., Ltd., priority 1996, dated 2000).
Converted amounts (≈) assume the structure as drawn. Read-outs that look alike come from different tables or passages of the source.

Experiments:
[1] = system: Staphylococcus aureus 50774; assay: In vitro antibacterial activity (MIC), Staphylococcus aureus 50774; assay type: cell-based; details: Staphylococcus aureus 50774; read-out: Minimum inhibitory concentration (MIC)
[2] = system: Pseudomonas aeruginosa No 12; assay: In vitro antibacterial activity (MIC), Pseudomonas aeruginosa No 12; assay type: cell-based; details: NO12, read-out: Minimum inhibitory concentration (MIC)
[3] = system: Staphylococcus aureus 50774; assay: Effect on systemic infection in mice; assay type: in vivo, mice (male Std-ddy strain); details: 168 h; Staphylococcus aureus 50774 i.p. infection; oral, twice (immediately and 6 h after infection); survival 7 days after infection
Protocol: The effects (ED50; mg/kg) on systemic infection in mice were determined as follows: Male Std-ddy strain mice (weighing about 20 g) were infected with each of the pathogenic bacteria shown in Table 2 by administering 5×10^3 viable cells intraperitoneally to each mouse. Then, a suspension of each test compound in 0.4% carboxymethylcellulose was orally administered twice, i.e., immediately after infection and 6 hours after infection. Seven days after infection, the ED50 value was calculated from the survival rate of each mouse group by probit analysis.
As a reference compound, there was used enoxacin [1-ethyl-6-fluoro-1,4-dihydro-4-oxo-7-(1-piperazinyl-1,8-naphthyridine-3-carboxylic acid; hereinafter abbreviated as ENX] that is an excellent antibacterial agent currently on the market.
The test compounds shown in the following Tables 1 and 2 are identified by the respective numbers of the Examples which will be given later.

[4] = system: Staphylococcus aureus MS16405; assay: In vitro antibacterial activity (MIC), Staphylococcus aureus MS16405; assay type: cell-based
[5] = system: Escherichia coli NIHJ JC-2; assay: In vitro antibacterial activity (MIC), Escherichia coli NIHJ JC-2; assay type: cell-based; details: NIHJJC2, read-out: Minimum inhibitory concentration (MIC)
[6] = Staphylococcus aureus, MS16405, read-out: Minimum inhibitory concentration (MIC)
[7] = Staphylococcus aureus MS16405, read-out: Minimum inhibitory concentration (MIC)

Row | Structure (SMILES) | MIC [1] [µg/mL] | MIC [2] [µg/mL] | ED50 [3] [mg/kg] | MIC [4, 6] [µg/mL] | MIC [5] [µg/mL] | MIC [4, 7] [µg/mL]
1 | COc1c(N2C[C@H](N)[C@H]3OCC[C@H]32)c(F)cc2c(=O)c(C(=O)O)cn(C3CC3)c12 (relative stereo) [Example 1, 7-[(1R*,5R*,8S*)-8-amino-2-oxa-6-azabicyclo[3.3.0]oct-6-yl]-1-cyclopropyl-6-fluoro-1,4-dihydro-8-methoxy-4-oxoquinoline-3-carboxylic acid] | ≤ 0.003 | 0.39 (≈ 0.967 µM) | 0.36 | 0.39 (≈ 0.967 µM) | 0.013 (≈ 0.0322 µM) | –
2 | COc1c(N2C[C@H](N)[C@H]3OCC[C@H]32)c(F)cc2c(=O)c(C(=O)O)cn([C@@H]3C[C@@H]3F)c12 (relative stereo) [Example 2, 7-[(1R*,5R*,8S*)-8-amino-2-oxa-6-azabicyclo[3.3.0]oct-6-yl]-6-fluoro-1-[(1R,2S)-2-fluorocyclopropyl]-1,4-dihydro-8-methoxy-4-oxoquinoline-3-carboxylicacid] | 0.006 (≈ 0.0142 µM) | 0.39 (≈ 0.925 µM) | 0.383 | 0.39 (≈ 0.925 µM) | 0.013 (≈ 0.0308 µM) | –
3 | Nc1c(F)c(N2C[C@H](N)[C@H]3OCC[C@H]32)c(F)c2c1c(=O)c(C(=O)O)cn2C1CC1 (relative stereo) [Example 3, 5-Amino-7-[(1R*,5R*,8S*)-8-amino-2-oxa-6-azabicyclo[3.3.0]oct-6-yl]-1-cyclopropyl-6,8-difluoro-1,4-dihydro-4-oxoquinoline-3-carboxylic acid] | 0.013 (≈ 0.032 µM) | 0.2 (≈ 0.492 µM) | 0.398 | – | 0.006 (≈ 0.0148 µM) | 1.56 (≈ 3.84 µM)
4 | COc1c(N2C[C@H](N)[C@H]3OCC[C@H]32)c(F)c(N)c2c(=O)c(C(=O)O)cn(C3CC3)c12 (relative stereo) [Example 4] | 0.006 (≈ 0.0143 µM) | 0.78 (≈ 1.86 µM) | 0.246 | 0.39 (≈ 0.932 µM) | 0.025 (≈ 0.0597 µM) | –
5 | COc1c(N2C[C@H](N)[C@H]3OCC[C@H]32)c(F)c(C)c2c(=O)c(C(=O)O)cn(C3CC3)c12 (relative stereo) [Example 5] | ≤ 0.003 | 0.78 (≈ 1.87 µM) | 0.257 | – | 0.025 (≈ 0.0599 µM) | 0.39 (≈ 0.934 µM)
6 | CN[C@H]1CN(c2c(F)cc3c(=O)c(C(=O)O)cn(C4CC4)c3c2OC)[C@@H]2CCO[C@H]12 (relative stereo) [Example 6] | 0.025 (≈ 0.0599 µM) | 1.56 (≈ 3.74 µM) | 0.292 | – | 0.025 (≈ 0.0599 µM) | 1.56 (≈ 3.74 µM)
7 | CN[C@H]1CN(c2c(F)c(C)c3c(=O)c(C(=O)O)cn(C4CC4)c3c2OC)[C@@H]2CCO[C@H]12 (relative stereo) [Example 8] | 0.013 (≈ 0.0301 µM) | 1.56 (≈ 3.62 µM) | 0.345 | – | 0.2 (≈ 0.464 µM) | 3.13 (≈ 7.25 µM)
8 | N[C@H]1CN(c2nc3c(cc2F)c(=O)c(C(=O)O)cn3-c2ccc(F)cc2F)[C@@H]2CCO[C@@H]21 (relative stereo) [Example 11] | 0.013 (≈ 0.0291 µM) | 0.39 (≈ 0.874 µM) | 0.579 | – | 0.25 (≈ 0.56 µM) | –
9 | CN[C@H]1CN(c2nc3c(cc2F)c(=O)c(C(=O)O)cn3-c2ccc(F)cc2F)[C@@H]2CCO[C@H]12 (relative stereo) [Example 17] | 0.05 (≈ 0.109 µM) | 0.78 (≈ 1.69 µM) | 0.78 | – | 0.1 (≈ 0.217 µM) | –
10 | CN[C@H]1CN(c2c(F)cc3c(=O)c(C(=O)O)cn(C4CC4)c3c2Cl)[C@@H]2CCO[C@H]12 (relative stereo) [Example 20] | 0.1 (≈ 0.237 µM) | 1.56 (≈ 3.7 µM) | – | – | 0.05 (≈ 0.119 µM) | 3.13 (≈ 7.42 µM)
11 | Nc1c(F)c(N2C[C@@H](N)[C@H]3OCCC[C@H]32)c(F)c2c1c(=O)c(C(=O)O)cn2C1CC1 (relative stereo) [Example 21] | ≤ 0.003 | 0.39 (≈ 0.928 µM) | – | – | 0.013 (≈ 0.0309 µM) | 0.78 (≈ 1.86 µM)
12 | N[C@H]1CN(c2nc3c(cc2F)c(=O)c(C(=O)O)cn3C2CC2)[C@@H]2CCO[C@@H]21 (relative stereo) [Example 22] | 0.05 (≈ 0.134 µM) | 0.39 (≈ 1.04 µM) | – | – | ≤ 0.003 | –
13 | COc1c(N2C[C@@H](N)[C@H]3OCC[C@H]32)c(F)cc2c(=O)c(C(=O)O)cn(C3CC3)c12 (relative stereo) [Example 23] | ≤ 0.003 | 0.78 (≈ 1.93 µM) | – | – | 0.025 (≈ 0.062 µM) | 0.78 (≈ 1.93 µM)
14 | Cc1c(F)c(N2C[C@H](N)[C@H]3OCC[C@H]32)c(C)c2c1c(=O)c(C(=O)O)cn2C1CC1 (relative stereo) [Example 24] | 0.013 (≈ 0.0324 µM) | 0.78 (≈ 1.94 µM) | – | – | 0.025 (≈ 0.0623 µM) | 1.56 (≈ 3.89 µM)
15 | N[C@H]1CN(c2cc3c(cc2F)c(=O)c(C(=O)O)cn3C2CC2)[C@@H]2CCO[C@@H]21 (relative stereo) [Example 26] | 0.05 (≈ 0.134 µM) | 0.39 (≈ 1.04 µM) | – | – | 0.013 (≈ 0.0348 µM) | –
16 | C#Cc1c(N2C[C@H](N)[C@H]3OCC[C@H]32)c(F)cc2c(=O)c(C(=O)O)cn(C3CC3)c12 (relative stereo) [Example 27] | 0.025 (≈ 0.0629 µM) | 1.56 (≈ 3.93 µM) | – | – | 0.025 (≈ 0.0629 µM) | 1.56 (≈ 3.93 µM)
17 | N[C@@H]1CN(c2nc3c(cc2F)c(=O)c(C(=O)O)cn3-c2ccc(F)cc2F)[C@@H]2CCO[C@H]12 (relative stereo) [Example 29] | 0.025 (≈ 0.056 µM) | 0.39 (≈ 0.874 µM) | – | – | 0.025 (≈ 0.056 µM) | –
18 | Cc1c(F)c(N2C[C@@H](N)[C@H]3OCCC[C@H]32)c(C#N)c2c1c(=O)c(C(=O)O)cn2C1CC1 (relative stereo) [Example 30] | 0.013 (≈ 0.0305 µM) | 0.78 (≈ 1.83 µM) | – | – | 0.05 (≈ 0.117 µM) | 3.13 (≈ 7.34 µM)
19 | COc1c(N2C[C@@H](N)[C@H]3OCCC[C@H]32)c(F)c(N)c2c(=O)c(C(=O)O)cn(C3CC3)c12 (relative stereo) [Example 32] | 0.013 (≈ 0.0301 µM) | 1.56 (≈ 3.61 µM) | – | – | 0.1 (≈ 0.231 µM) | 0.78 (≈ 1.8 µM)
20 | C=Cc1c(N2C[C@H](N)[C@H]3OCC[C@H]32)c(F)cc2c(=O)c(C(=O)O)cn(C3CC3)c12 (relative stereo) [Example 33] | 0.025 (≈ 0.0626 µM) | 3.13 (≈ 7.84 µM) | – | – | 0.05 (≈ 0.125 µM) | 1.56 (≈ 3.91 µM)
21 | N#Cc1c(N2C[C@@H](N)[C@H]3OCCC[C@H]32)c(F)cc2c(=O)c(C(=O)O)cn(C3CC3)c12 (relative stereo) [Example 34] | 0.05 (≈ 0.121 µM) | 1.56 (≈ 3.78 µM) | – | – | 0.05 (≈ 0.121 µM) | 6.25 (≈ 15.2 µM)
22 | CN[C@@H]1CN(c2c(F)cc3c(=O)c(C(=O)O)cn(C4CC4)c3c2OC)[C@@H]2CCO[C@@H]21 (relative stereo) [Example 35] | 0.025 (≈ 0.0599 µM) | 3.13 (≈ 7.5 µM) | – | – | 0.1 (≈ 0.24 µM) | 6.25 (≈ 15 µM)
23 | N[C@@H]1CN(c2c(F)cc3c(=O)c(C(=O)O)cn(C4CC4)c3c2OC(F)F)[C@@H]2CCO[C@H]12 (relative stereo) [Example 37] | 0.05 (≈ 0.114 µM) | 3.13 (≈ 7.12 µM) | – | – | 0.1 (≈ 0.228 µM) | 6.25 (≈ 14.2 µM)
24 | N#Cc1c(N2C[C@H](N)[C@H]3OCC[C@H]32)c(F)cc2c(=O)c(C(=O)O)cn(C3CC3)c12 (relative stereo) [Example 38] | 0.1 (≈ 0.251 µM) | 3.13 (≈ 7.86 µM) | – | – | 0.05 (≈ 0.126 µM) | –
25 | Cc1c(F)c(N2C[C@H](N)[C@H]3OCC[C@H]32)nc2c1c(=O)c(C(=O)O)cn2-c1ccc(F)cc1F (relative stereo) [Example 39, 7-[(1R*,5R*,8S*)-8-amino-2-oxa-6-azabicyclo[3.3.0]oct-6-yl]-6-fluoro-1-(2,4-difluorophenyl)-1,4-dihydro-5-methyl-4-oxo-1,8-naphthyridine-3-carboxylic acid] | 0.025 (≈ 0.0543 µM) | 0.78 (≈ 1.69 µM) | – | – | 0.2 (≈ 0.434 µM) | 3.13 (≈ 6.8 µM)
26 | COc1c(N2C[C@@H](N)[C@H]3OC(C)C[C@H]32)c(F)cc2c(=O)c(C(=O)O)cn(C3CC3)c12 (relative stereo) [Example 40, 7-[(1R*,5R*,8R*)-8-amino-3-methyl-2-oxa-6-azabicyclo[3.3.0]oct-6-yl]-1-cyclopropyl-6-fluoro-1,4-dihydro-8-methoxy-4-oxoquinoline-3-carboxylic acid] | 0.025 (≈ 0.0599 µM) | 3.13 (≈ 7.5 µM) | – | – | 0.1 (≈ 0.24 µM) | 1.56 (≈ 3.74 µM)
